The text below walks through data of patent EP1996603B1, “LIPID A ANTAGONISTS WITH ANTI-SEPTIC SHOCK, ANTI-INFLAMMATORY, ANTI-ISCHEMIA AND ANALGESIC ACTIVITY” (Università Degli Studi Di Milano - Bicocca, priority 2006, dated 2007).

The test system of one data set is BMΦ, BMDC and D1 cells. The data set can be described thus: Lipid A-induced TNFα production in macrophages and dendritic cells (ELISA). The class given is cell-based, Mouse. As to the method: BMΦ and DC were derived from bone marrow cells and divided in two separate cultures. For DC preparation bone marrow cells were cultured in complete IMDM supplemented with 10% supernatant of GM-CSF-transduced B16 tumor cells [R. Soiffer, T. Lynch, M. Mihm, K. Jung, C. Rhuda, J. C. Schmollinger, F. S. Hodi, L. Liebster, P. Lam, S. Mentzer, S. Singer, K. K. Tanabe, A. B. Cosimi, R. Duda, A. Sober, A. Bhan, J. Daley, D. Neuberg, G. Parry, J. Rokovich, L. Richards, J. Drayer, A. Berns, S. Clift, L. K. Cohen, R. C. Mulligan, G. Dranoff, Proc. Natl. Acad. Sci. U S A. 1998, 95(22), 13141-13146]. Fresh medium was added every 2 d. After 7-10 d of culture, cells were analyzed for CD11c expression and used in assays when 90% were CD11c positive. For BMΦ preparation bone marrow cells were cultured in complete IMDM supplemented with 10% supernatant of M-CSF-transduced NIH3T3 cells. Also in this case, fresh medium was added every 2 d. After 7-10 d of culture, cells were analyzed for Mac1 expression and used in assays when at least 90% were Mac1 positive. D1 cells were cultured in complete IMDM supplemented with 10% supernatant of GM-CSF-transduced B16 tumor cells.
D1 cells, BMDC and MΦ were plated in 48 well plates at a concentration of 200000 cells/well in 200µL of medium. One or two hours after plating they were treated with different amounts of compounds Ic and Id for 30 min and then stimulated with Lipid A from Escherichia coli (F583, Rd mutant Sigma, 0.5µM) for 18 h.
Given the pivotal role of early-activated DC and MΦ in directing inflammatory reactions, compounds Ia, Ic and Id were tested for their ability to antagonize the stimulatory activity of lipid A on bone marrow derived macrophages (BMΦ) and DC (BMDC) by interfering with their capacity to induce TNFα production. As source of DC, D1 cells, a long term growth factor (GM-CSF)-dependent DC line [C. Winzler et al. J. Exp. Med. 1997, 185, 317-327] were also used. BMΦ, BMDC and D1 cells were stimulated with lipid A (0.5 µM) after a pre-exposure to compounds Ia, Ic and Id and the amount of TNFα released in the supernatant was measured by ELISA.

A further data set concerns TLR9. The data set can be described thus: TNFα production after stimulation with CpG (TLR9 selectivity). The class given is cell-based, Mouse. The note with it: stimulation through CpG, recognized by TLR9. The procedure:
• Figure 1. Antagonistic activity of compounds Ia, Ic and Id on lipid A-stimulated cytokine production in BMDC, BMØ and D1 cells. TNFα production was measured in the supernatants 24 h later. From the right: lipid A (0.5µM), cells treated with lipid A alone; DMSO: cells incubated in the presence of complete medium plus DMSO; inhibitor 50 µM, cells treated only with monosaccharides Ia, Ic and Id; other columns, lipid A + compounds […] at increasing doses. The data represent means and standard deviations of triplicate wells. This is a representative of three independent experiments. *, p < 0.05; **, p < 0.01; ***, p< 0.001. • Figure 2. TLR-4 selectivity of monosaccharide Id. […] IL-1β was measured in the supernatants by ELISA. […] Lower panels, TNFα production measured by ELISA 24 h after stimulation with CpG (selective for TLR-9) or PAM3Cys-SK4 (selective for TLR-2) in the presence of compound Id. […] The cells were then analyzed by FACS for the presence of annexin V and propidium iodide (PI) double positive cells. […] NF-kB activation was evaluated in the nuclear extract 2 h later and expressed as optical density (OD) at 450 nm. […] Effect of different doses of compound Id on carrageenan induced edema in mice measured 4h after the exposure and expressed as difference between the paw volume of treated paw versus the contralateral paw. […]

Data set [1] is described as follows: Solubility in the aqueous media used in the tests. The class given is physicochemical. The note with it: compared with Ia and Ic.

“Also recorded” adds a separate entry of the source.

For `CCCCCCCCCCCCCCO[C@H]1[C@@H](OC)O[C@H](C[N+](C)(C)C2CCCC2)[C@@H](O)[C@@H]1OCCCCCCCCCCCCCC` [Compound Id, methyl 6-deoxy-6-N,N',N"-dimethylcyclopentylammonium-2,3-di-O-tetradecyl-α-D-glucopyranoside], the “direct inflammatory function (stimulating cytokines production)” value with BMΦ, BMDC and D1 cells (cells treated with compound alone, without lipid A) is “did not show any direct inflammatory function”. Further, in the data set with BMΦ, BMDC and D1 cells (comparison between compounds Ia, Ic and Id), the “relative potency as inhibitor of lipid A” value is “more potent than Ic”. For the same compound, the TNFα production result in the data set with BMΦ, BMDC and D1 cells (stimulation with lipid A (0.5 µM) after pre-exposure to compound, TNFα released in the supernatant measured by ELISA, BMΦ, BMDC and D1 cells) is given as “interfered with lipid A's action in a dose-dependent manner; also recorded: lower activity; also recorded: inhibited”; in the data set with TLR9 it was “not inhibited”. Besides, the “solubility in the aqueous media used in the tests” value in data set [1] was “highest solubility”.
